# doi:10.1101/2024.03.17.584721v1 (bioRxiv, 2024)
# Assays:
# HeLa cells = experiment: Confocal imaging of subcellular localization; assay type: cell-based, human; details: free fluorescein-labelled peptide without LNP, 8 hours, live cell confocal
# [1] = In vivo biodistribution of LNP-encapsulated PepTACs; parameters: species or system SKH-1 hairless mice; details: Cy5.5-labeled, 5 mg/kg IV, confocal imaging of liver sections
# [2] = Encapsulation efficiency of the LNPs; assay type: physicochemical; details: optimized LNP formulation, ^CRPepTAC or peptide ligand alone; Figure 4B
Substance,uptake / subcellular localization (HeLa cells),PepTAC signal in liver sections after 24 hours [1],"LNP Encapsulation Efficiency, % [2] [%]"
IYP^OHAL-Ahx-KDVLSEKEKKLEEYKQKLARV [^CRPepTAC],no uptake or cellular association,no signal,–
KDVLSEKEKKLEEYKQKLARV [CL],–,–,15
